Target: Serine/threonine-protein kinase PAK 2 (Homo sapiens) (UniProt Q13177)
Test: PubChem AID 1224914
Conditions: PAK2 binding assay

Serine/threonine-protein kinase PAK 2 (Homo sapiens), sequence (Q13177 whole entry, looked up): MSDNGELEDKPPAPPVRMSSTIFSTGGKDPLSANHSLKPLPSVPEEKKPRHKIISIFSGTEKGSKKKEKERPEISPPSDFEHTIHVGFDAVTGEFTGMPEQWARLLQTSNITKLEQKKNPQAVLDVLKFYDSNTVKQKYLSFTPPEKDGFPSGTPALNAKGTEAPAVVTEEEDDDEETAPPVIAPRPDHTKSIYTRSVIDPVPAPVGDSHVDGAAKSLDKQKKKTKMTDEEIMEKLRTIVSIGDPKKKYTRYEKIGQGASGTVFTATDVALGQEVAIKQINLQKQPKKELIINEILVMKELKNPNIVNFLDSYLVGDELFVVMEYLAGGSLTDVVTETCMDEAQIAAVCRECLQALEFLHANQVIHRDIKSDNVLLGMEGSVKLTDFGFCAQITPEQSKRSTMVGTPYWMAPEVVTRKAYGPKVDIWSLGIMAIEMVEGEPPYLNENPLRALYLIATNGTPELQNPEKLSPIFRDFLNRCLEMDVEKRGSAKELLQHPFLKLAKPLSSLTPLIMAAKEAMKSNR

- Kd: 400 nM
SMILES: CC(C)NC(=O)N1CC[C@H](N=C2Nc3cc(F)ccc3N(CC(F)F)c3ccc(Cl)cc32)C1

From PubChem BioAssay AID1224914
